Measurements as given in patent US7772246B2 (Pfizer Inc., priority 2007, dated 2010).

Biological target: T1, b-Raf (Homo sapiens, UniProt P15056, V600E)
T1 construct: endogenous in cells; host or cells: A2058 human melanoma cells
Test: Raf cellular assay (phospho-Mek1/2 ELISA in A2058 cells)
Format: cell-based
Details: Table 3; human melanoma A2058 cells (b-Raf mutation), Mek1/2 Ser217/221 phosphorylation, 1 hour incubation; read-out: pMEK IC50
Method: Compounds of the present invention were evaluated for potency against b-Raf using a cellular assay as follows. The activity of Raf kinases in cells is determined by measuring the level of phosphorylation of Mek1/2 at serine 217/221, the site phosphorylated by Raf kinases in vivo. Mek1/2 Ser phosphorylation is measured using anti-phospho-Mek1/2 antibodies (Cell Signaling #9121) in an ELISA format.
Healthy growing human melanoma A2058 cells (harboring a b-Raf mutation) are used for the assay. A2058 cells are grown in 10% FBS DMEM medium. When the cells are near 85%+confluence, the cells are rinsed with PBS once and trypsinized with trypsin/EDTA for 3 minutes. The cells are resuspended in 10% FBS DMEM and are centrifuged down at 1000 rpm for 5 minutes. The cells are resuspended in 10% FBS DMEM and counted on a cell counter. The cells are seeded at 50,000 cells/well in a volume of 100 μL/well in 10% FBS DMEM in a 96 well flat-bottom plate. The negative control wells receive only 100 μL of 10% FBS DMEM medium without cells. The plate is incubated overnight in a cell culture incubator with 5% CO2 at 37° C.
On day 2, testing compounds are prepared in 10% FBS DMEM medium and serially diluted at 1:3 for 11 test concentrations. Each concentration of the compounds is tested in duplicate. The compound solutions are added at 25 μL/well to the corresponding wells in the cell plate, and 25 μL/well of the vehicle (0.5% DMSO in 10% FBS DMEM) is added to the negative control wells (no cells) and the positive control wells (cells without compounds). The plate is incubated for 1 hour in a cell culture incubator with 5% CO2 at 37° C. After 1 hour of incubation, the medium is removed, 100 μL/well of cell lysis buffer is added into the cell plate, and the plate is shaken for 15 minutes at room temperature. After 15 minutes, the cell lysates are transferred to an ELISA plate (pre-coated with anti-Mek1 anti-body, Cell Signaling #2352), and the plate is incubated with gentle shaking for 2 hours at room temperature. After 2 hours, the contents of the wells are aspirated and the wells are washed 4 times with wash buffer. 100 μL of phospho-Mek1/2 detection antibody (Cell Signaling #9121) is added into each well and the plate is incubated with gentle shaking for 1 hour at room temperature. After 1 hour, the wells are aspirated and washed 4 times with wash buffer. 100 μL of anti-rabbit IgG HRP-linked antibody (Cell Signaling #7074) is added to each well, and the plate is incubated with gentle shaking for 1 hour at room temperature. After 1 hour, the contents of the wells are aspirated and the wells are washed 4 times with wash buffer. 100 μL of TMB substrate solution (Sigma #T0440) is added into each well, and the plate is incubated with gentle shaking at room temperature for 10 to 20 minutes. After color development, 100 μL of stop solution (1N hydrochloric acid) is added to each well to terminate color development. The plate is read at 450 nm on an ELISA plate reader.

T1 sequence (P15056 whole entry V600E): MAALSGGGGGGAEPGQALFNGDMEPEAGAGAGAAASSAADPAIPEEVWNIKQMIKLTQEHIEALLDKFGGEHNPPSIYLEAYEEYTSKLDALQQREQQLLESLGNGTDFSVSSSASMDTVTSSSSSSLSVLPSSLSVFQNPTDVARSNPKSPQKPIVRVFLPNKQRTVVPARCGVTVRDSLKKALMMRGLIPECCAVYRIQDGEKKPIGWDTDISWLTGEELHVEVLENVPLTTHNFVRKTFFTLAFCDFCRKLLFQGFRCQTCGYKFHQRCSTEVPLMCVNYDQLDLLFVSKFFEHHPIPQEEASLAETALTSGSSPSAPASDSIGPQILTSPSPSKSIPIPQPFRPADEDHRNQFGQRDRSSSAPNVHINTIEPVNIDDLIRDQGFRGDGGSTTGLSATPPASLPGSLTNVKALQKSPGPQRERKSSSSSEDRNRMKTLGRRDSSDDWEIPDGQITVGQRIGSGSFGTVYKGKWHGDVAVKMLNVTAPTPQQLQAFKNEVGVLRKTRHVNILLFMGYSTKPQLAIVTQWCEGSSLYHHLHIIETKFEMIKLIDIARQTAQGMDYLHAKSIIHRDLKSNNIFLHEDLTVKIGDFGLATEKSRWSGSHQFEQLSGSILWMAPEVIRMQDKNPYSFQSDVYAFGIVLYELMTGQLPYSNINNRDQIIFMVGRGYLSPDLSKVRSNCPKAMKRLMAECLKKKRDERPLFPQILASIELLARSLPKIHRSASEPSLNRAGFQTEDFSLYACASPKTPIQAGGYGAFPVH

Row | SMILES | IC50 [µM]
1 | CC(C)n1cc(-c2ccnc(NCCC#N)n2)c(-c2cccnc2)n1 [Example B-53, 3-{[4-(1-isopropyl-3-pyridin-3-yl-1H-pyrazol-4-yl)pyrimidin-2-yl]amino}-propanenitrile] | 1.32
2 | COc1cc(-c2nn(C(C)(C)C)cc2-c2ccnc(NCC(F)F)n2)cnc1N [Example B-54, 4-[3-(6-amino-5-methoxypyridin-3-yl)-1-tert-butyl-1H-pyrazol-4-yl]-N-(2,2-difluoroethyl)pyrimidin-2-amine] | 0.00124
3 | C[C@H](CO)n1cc(-c2ccnc(N)n2)c(-c2cnc3[nH]cc(Cl)c3c2)n1 [Example B-55, (2R)-2-[4-(2-aminopyrimidin-4-yl)-3-(3-chloro-1H-pyrrolo[2,3-b]pyridin-5-yl)-1H-pyrazol-1-yl]propan-1-ol] | 0.0636
4 | COc1cc(-c2nn(C3CC3)cc2-c2ccnc(N)n2)cnc1N [Example B-56, 4-[3-(6-amino-5-methoxypyridin-3-yl)-1-cyclopropyl-1H-pyrazol-4-yl]pyrimidin-2-amine] | 0.0833
5 | COc1cc(-c2nn(C3CC3)cc2-c2ccnc(NCCC#N)n2)cnc1N [Example B-57, 3-({4-[3-(6-amino-5-methoxypyridin-3-yl)-1-cyclopropyl-1H-pyrazol-4-yl]pyrimidin-2-yl}amino)-propanenitrile] | 0.00295
6 | Cc1c[nH]c2ncc(-c3nn(C(C)(C)CO)cc3-c3ccnc(N)n3)cc12 [Example B-58, 2-[4-(2-aminopyrimidin-4-yl)-3-(3-methyl-1H-pyrrolo[2,3-b]pyridin-5-yl)-1H-pyrazol-1-yl]-2-methylpropan-1-ol] | 0.00986
7 | COc1cc(-c2nn(C3CC3)cc2-c2ccnc(NCC(F)F)n2)cnc1N [Example B-59, 4-[3-(6-amino-5-methoxypyridin-3-yl)-1-cyclopropyl-1H-pyrazol-4-yl]-N-(2,2-difluoroethyl)pyrimidin-2-amine] | 0.00686
8 | CC(C)n1cc(-c2ccnc(N)n2)c(-c2cnc3[nH]cc(Cl)c3c2)n1 [Example B-60, 4-[3-(3-chloro-1H-pyrrolo[2,3-b]pyridin-5-yl)-1-isopropyl-1H-pyrazol-4-yl]pyrimidin-2-amine] | 0.044
9 | CCn1cc(-c2ccnc(NC[C@H](C)O)n2)c(-c2cnc3[nH]cc(Cl)c3c2)n1 [Example B-61, (2S)-1-({4-[3-(3-chloro-1H-pyrrolo[2,3-b]pyridin-5-yl)-1-ethyl-1H-pyrazol-4-yl]pyrimidin-2-yl}amino)propan-2-ol] | 0.0673
10 | Cc1c[nH]c2ncc(-c3nn(C(C)C)cc3-c3ccnc(N)n3)cc12 [Example B-62, 4-[1-isopropyl-3-(3-methyl-1H-pyrrolo[2,3-b]pyridin-5-yl)-1H-pyrazol-4-yl]pyrimidin-2-amine] | 0.0481
11 | Nc1nccc(-c2cn(C3CCNCC3)nc2-c2cnc3[nH]cc(Cl)c3c2)n1 [Example B-63, 4-[3-(3-chloro-1H-pyrrolo[2,3-b]pyridin-5-yl)-1-piperidin-4-yl-1H-pyrazol-4-yl]pyrimidin-2-amine] | 0.0437
12 | Clc1c[nH]c2ncc(-c3nn(C4CCNCC4)cc3-c3ccncn3)cc12 [Example B-64, 3-chloro-5-(1-piperidin-4-yl-4-pyrimidin-4-yl-1H-pyrazol-3-yl)-1H-pyrrolo[2,3-b]pyridine] | 0.0617
13 | CC(C)(C)n1cc(-c2ccnc(N)n2)c(-c2cnc3[nH]cc(Cl)c3c2)n1 [Example B-65, 4-[1-tert-butyl-3-(3-chloro-1H-pyrrolo[2,3-b]pyridin-5-yl)-1H-pyrazol-4-yl]pyrimidin-2-amine] | 0.00904
14 | Cc1c[nH]c2ncc(-c3nn(C(C)(C)C)cc3-c3ccnc(NC[C@H](C)O)n3)cc12 [Example B-66, (2S)-1-({4-[1-tert-butyl-3-(3-methyl-1H-pyrrolo[2,3-b]pyridin-5-yl)-1H-pyrazol-4-yl]pyrimidin-2-yl}amino)propan-2-ol] | 0.00287
15 | CC(=O)N1CCC(n2cc(-c3ccnc(NCC(F)F)n3)c(-c3cnc4[nH]cc(Cl)c4c3)n2)CC1 [Example B-67, 4-[1-(1-acetylpiperidin-4-yl)-3-(3-chloro-1H-pyrrolo[2,3-b]pyridin-5-yl)-1H-pyrazol-4-yl]-N-(2,2-difluoroethyl)-pyrimidin-2-amine] | 0.0092
16 | COc1cc(-c2n[nH]cc2-c2ccnc(NCC(F)F)n2)cnc1N [Example B-68, 4-[3-(6-amino-5-methoxypyridin-3-yl)-1H-pyrazol-4-yl]-N-(2,2-difluoroethyl)-pyrimidin-2-amine] | 0.0256
17 | COc1cc(-c2nn(C3CCOCC3)cc2-c2ccnc(NCCC#N)n2)cnc1N [Example B-69, 3-({4-[3-(6-amino-5-methoxypyridin-3-yl)-1-(tetrahydro-2H-pyran-4-yl)-1H-pyrazol-4-yl]pyrimidin-2-yl}amino)propanenitrile] | 0.00298
18 | COc1cc(-c2nn(C3CCOCC3)cc2-c2ccnc(NCC(F)F)n2)cnc1N [Example B-70, 4-[3-(6-amino-5-methoxypyridin-3-yl)-1-(tetrahydro-2H-pyran-4-yl)-1H-pyrazol-4-yl]-N-(2,2-difluoroethyl)-pyrimidin-2-amine] | 0.00233
19 | Cc1n[nH]c2ncc(-c3nn(C(C)(C)C)cc3-c3ccnc(NCCC#N)n3)cc12 [Example B-71, 3-({4-[1-tert-butyl-3-(3-methyl-1H-pyrazolo[3,4-b]pyridin-5-yl)-1H-pyrazol-4-yl]pyrimidin-2-yl}amino)propanenitrile] | 0.0028

Continued, values first:

Row | IC50 [µM] | SMILES
20 | 0.00815 | CC(C)(C)n1cc(-c2ccnc(NCCC#N)n2)c(-c2cnc3c(c2)CCN3)n1 [Example B-72, 3-({4-[1-tert-butyl-3-(2,3-dihydro-1H-pyrrolo[2,3-b]pyridin-5-yl)-1H-pyrazol-4-yl]pyrimidin-2-yl}amino)propanenitrile]
21 | 0.0635 | COc1cncc(-c2nn([C@@H]3CCOC3)cc2-c2ccnc(NCCC#N)n2)c1 [Example B-73, 3-[(4-{3-(5-methoxypyridin-3-yl)-1-[(3R)-tetrahydrofuran-3-yl]-1H-pyrazol-4-yl}pyrimidin-2-yl)amino]propanenitrile]
22 | 0.00533 | CC(C)(C)n1cc(-c2ccnc(NCCC#N)n2)c(-c2cnc3[nH]ccc3c2)n1 [Example B-74, 3-({4-[1-tert-butyl-3-(1H-pyrrolo[2,3-b]pyridin-5-yl)-1H-pyrazol-4-yl]pyrimidin-2-yl}amino)-propanenitrile]
23 | 0.0238 | N#CCCNc1nccc(-c2cn([C@@H]3CCOC3)nc2-c2cnc3[nH]ccc3c2)n1 [Example B-75, 3-[(4-{3-(1H-pyrrolo[2,3-b]pyridin-5-yl)-1-[(3R)-tetrahydrofuran-3-yl]-1H-pyrazol-4-yl}pyrimidin-2-yl)amino]propanenitrile]
24 | 0.012 | C[C@H](O)CNc1nccc(-c2cn(C3CCOCC3)nc2-c2cnc3[nH]cc(Cl)c3c2)n1 [Example B-76, (2S)-1-({4-[3-(3-chloro-1H-pyrrolo[2,3-b]pyridin-5-yl)-1-(tetrahydro-2H-pyran-4-yl)-1H-pyrazol-4-yl]pyrimidin-2-yl}amino)propan-2-ol]
25 | 0.0304 | FC(F)CNc1nccc(-c2cn(C3CCNCC3)nc2-c2cnc3[nH]cc(Cl)c3c2)n1 [Example B-77, 4-[3-(3-chloro-1H-pyrrolo[2,3-b]pyridin-5-yl)-1-piperidin-4-yl-1H-pyrazol-4-yl]-N-(2,2-difluoroethyl)pyrimidin-2-amine]
26 | 0.0088 | CC(=O)c1cc(-c2nn(CC(F)F)cc2-c2ccnc(NCCC#N)n2)cnc1N [Example B-78, 3-(4-(3-(5-acetyl-6-aminopyridin-3-yl)-1-(2,2-difluoroethyl)-1H-pyrazol-4-yl)pyrimidin-2-ylamino)propanenitrile]
27 | 0.0953 | COc1cc(-c2nn(-c3ccc(C#N)cc3)cc2-c2ccnc(NCCO)n2)cnc1N [Example B-80, 4-[3-(6-amino-5-methoxypyridin-3-yl)-4-{2-[(2-hydroxyethyl)-amino]pyrimidin-4-yl}-1H-pyrazol-1-yl]-benzonitrile]
28 | 0.0715 | COc1ccc(Nc2nccc(-c3cn(CC(F)F)nc3-c3cnc4[nH]ccc4c3)n2)cn1 [Example B-81, 4-[1-(2,2-difluoroethyl)-3-(1H-pyrrolo[2,3-b]pyridin-5-yl)-1H-pyrazol-4-yl]-N-(6-methoxypyridin-3-yl)pyrimidin-2-amine]
